Earlier results, collected in patent US8613910B2, “Flavonoids as synergists for enhancing the action of self-tanning substances” (Merck Patent GmbH, priority 2005, dated 2013).

Settings: amongst the hydroxyflavone structures investigated, entire pH range

SMILES: O=c1c(O)c(-c2ccc(O)c(O)c2)oc2cc(O)cc(O)c12 [quercetin, 3,3′,4′,5,7-pentahydroxyflavone]
- antioxidant action: greatest activity
